The source of these data is ChEMBL document CHEMBL3286346, “Ultrapure ajulemic acid has improved CB2 selectivity with reduced CB1 activity” (Bioorg Med Chem, 2014).

Active and inactive are the calls of the source. The rule behind the calls is not given here.

For data set [1], the system named is Mus musculus. In words: Antinociceptive activity in CD1 mouse assessed as increase in paw withdrawal latency at 0.05 to 5 mg/kg, po measured after 90 mins post dose by hot plate test relative to vehicle-treated control. The format is functional, organism-based. (In general: Hot-plate and tail-flick tests time the reaction to a heat stimulus.)
Data set [2] concerns the target Cannabinoid receptor 1 (Homo sapiens, UniProt P21554). Kind of data set: biochemical. It is filed as cell-based, HEK-293T.
Description: Displacement of [3H]-CP-55940 from human CB1 receptor expressed in HEK293T cell membranes by scintillation counting
In data set [3] the target is Cannabinoid receptor 2 (Homo sapiens, UniProt P34972). Kind of data set: Displacement of [3H]-CP-55940 from human CB2 receptor expressed in HEK293T cell membranes by scintillation counting. Details: species or system HEK-293T.
The test system of data set [4] is HEK-293T. Kind of data set: Selectivity ratio of Ki for human CB1 receptor expressed in HEK293T cell membranes to human CB2 receptor expressed in HEK293T cell membranes. The format is cell-based.
In data set [5] the test system is HL-60. Kind of data set: Antiinflammatory activity in human HL60 cells assessed as stimulation of PGJ synthesis after 2 hrs by ELISA. It is filed as functional, cell-based. For orientation: An ELISA detects its analyte on a solid surface through an enzyme-linked reagent.
Data set [6] deals with HL-60. Kind of data set: Antiinflammatory activity in human HL60 cells assessed as stimulation of PGJ synthesis after 2 hrs by ELISA in presence of CB2 antagonist SR144528. It is filed as functional, cell-based.
The test system of data set [7] is HL-60. Kind of data set: Antiinflammatory activity in human HL60 cells assessed as stimulation of PGJ synthesis after 2 hrs by ELISA in presence of CB1 antagonist SR141716. It is filed as functional, cell-based.
Data set [8] has as its system Mus musculus. Kind of data set: Antinociceptive activity in CD1 mouse assessed as increase in paw withdrawal latency at 56 mg/kg, po measured after 90 mins post dose by hot plate test relative to vehicle-treated control. It is filed as functional, organism-based. Also on record: dose 56 mg/kg.
For data set [9], the system named is Mus musculus. Kind of data set: Toxicity in CD1 mouse assessed as time immobility on the ring for 5 mins at 30 mg/kg, po measured after 90 mins post dose by ring catalepsy test. The format is organism-based. Details: dose 30 mg/kg, route oral. The following applies: in vivo.
Data set [10] concerns Mus musculus. In words: Toxicity in CD1 mouse assessed as hypothermia measured as lowering of core body temperature at 3 to 56 mg/kg, po measured after 90 mins post dose. The format is organism-based. Details: dose 3-56 mg/kg, route oral. The following applies: in vivo, 1.5 h.

Sequence of Cannabinoid receptor 2 (P34972 whole entry): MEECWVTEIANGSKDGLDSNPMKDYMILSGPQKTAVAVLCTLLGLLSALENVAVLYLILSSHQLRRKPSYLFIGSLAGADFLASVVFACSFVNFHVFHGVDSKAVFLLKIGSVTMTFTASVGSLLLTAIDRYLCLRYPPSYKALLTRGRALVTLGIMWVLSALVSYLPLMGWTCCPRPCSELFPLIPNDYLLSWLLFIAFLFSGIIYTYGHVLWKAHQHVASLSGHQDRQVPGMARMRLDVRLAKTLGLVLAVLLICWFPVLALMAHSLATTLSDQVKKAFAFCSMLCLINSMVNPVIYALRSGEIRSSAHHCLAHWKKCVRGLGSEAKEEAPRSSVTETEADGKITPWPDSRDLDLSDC
Sequence of Cannabinoid receptor 1 (P21554 whole entry): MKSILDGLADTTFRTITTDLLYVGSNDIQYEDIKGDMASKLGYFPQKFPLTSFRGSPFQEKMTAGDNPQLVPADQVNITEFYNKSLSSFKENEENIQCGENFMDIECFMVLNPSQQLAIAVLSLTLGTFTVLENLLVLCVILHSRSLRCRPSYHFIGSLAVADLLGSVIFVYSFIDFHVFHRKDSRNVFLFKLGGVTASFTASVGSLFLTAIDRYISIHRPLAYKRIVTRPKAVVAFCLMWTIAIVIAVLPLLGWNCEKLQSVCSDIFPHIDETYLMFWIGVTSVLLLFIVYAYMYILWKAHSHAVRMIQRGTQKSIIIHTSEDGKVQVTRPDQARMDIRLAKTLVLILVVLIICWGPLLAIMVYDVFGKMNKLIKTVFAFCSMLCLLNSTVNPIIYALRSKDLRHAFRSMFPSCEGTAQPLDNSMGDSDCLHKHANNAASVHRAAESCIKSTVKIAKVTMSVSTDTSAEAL

In the case of `CCCCCCC(C)(C)c1cc(O)c2c(c1)OC(C)(C)[C@@H]1CC=C(C(=O)O)C[C@@H]21`, in data set [1], the result was Active.

`CCCCCCC(C)(C)c1cc(OC(C)=O)c2c(c1)OC(C)(C)[C@@H]1CC=C(C(=O)O)C[C@@H]21`: the results for the inhibitory constant (Ki) in data set [2] and in data set [3] were 628 nM and 51 nM, respectively. In addition, in data set [4], the Ratio Ki was found to be 12.3. Besides, the result in data set [5] was Active. For the same molecule, the outcome in [6], in [7] and in [8] was inactive. Moreover, the results for the Activity entry in data set [9] and in data set [10] were “Toxic” and “Non-toxic”, respectively.

In general, Ki refers to a measure of affinity in units of concentration, obtained from inhibition or displacement. A higher Ki goes with a looser hold on the target.
